Laboratory results taken from publication PMC5529566, “The cryo-EM structure of gastric H^+,K^+-ATPase with bound BYK99, a high-affinity member of K^+-competitive, imidazo[1,2-a]pyridine inhibitors” (Scientific Reports, 2017).

Tests used:
H^+,K^+-ATPase N138A = H^+,K^+-ATPase N138A (Sus scrofa, UniProt P19156, N139A); experiment: ATPase assay, N138A mutant
H^+,K^+-ATPase D137E = target: T1, H^+,K^+-ATPase D137E (Sus scrofa, UniProt P19156, D138E); experiment: ATPase assay, D137E mutant; assay type: biochemical, pig
T1 construct: made in house; host or cells: HEK293S GnT1- cells (BacMam baculovirus transduction), membrane fraction

H^+,K^+-ATPase V338A = H^+,K^+-ATPase V338A (Sus scrofa, UniProt P19156, V339A); experiment: ATPase assay, V338A mutant
H^+,K^+-ATPase Y140I = H^+,K^+-ATPase Y140I (Sus scrofa, UniProt P19156, Y141I); experiment: ATPase assay, Y140I mutant
H^+,K^+-ATPase = H^+,K^+-ATPase (Sus scrofa, UniProt P19156); experiment: Dose-dependent inhibition of H^+,K^+-ATPase activity in the presence of 10 mM KCl
H^+,K^+-ATPase I126F = target: T2, H^+,K^+-ATPase I126F (Sus scrofa, UniProt P19156, I127F); experiment: ATPase assay, I126F mutant; assay type: biochemical, pig
T2 construct: made in house; host or cells: HEK293S GnT1- cells (BacMam baculovirus transduction); permeabilised membrane fractions

H^+,K^+-ATPase V331A = H^+,K^+-ATPase V331A (Sus scrofa, UniProt P19156, V332A); experiment: ATPase assay, V331A mutant
H^+,K^+-ATPase D136F = H^+,K^+-ATPase D136F (Sus scrofa, UniProt P19156, D137F); experiment: ATPase assay, D136F mutant
H^+,K^+-ATPase A125S = H^+,K^+-ATPase A125S (Sus scrofa, UniProt P19156, A126S); experiment: ATPase assay, A125S mutant
Sequence of H^+,K^+-ATPase A125S (P19156 whole entry A126S): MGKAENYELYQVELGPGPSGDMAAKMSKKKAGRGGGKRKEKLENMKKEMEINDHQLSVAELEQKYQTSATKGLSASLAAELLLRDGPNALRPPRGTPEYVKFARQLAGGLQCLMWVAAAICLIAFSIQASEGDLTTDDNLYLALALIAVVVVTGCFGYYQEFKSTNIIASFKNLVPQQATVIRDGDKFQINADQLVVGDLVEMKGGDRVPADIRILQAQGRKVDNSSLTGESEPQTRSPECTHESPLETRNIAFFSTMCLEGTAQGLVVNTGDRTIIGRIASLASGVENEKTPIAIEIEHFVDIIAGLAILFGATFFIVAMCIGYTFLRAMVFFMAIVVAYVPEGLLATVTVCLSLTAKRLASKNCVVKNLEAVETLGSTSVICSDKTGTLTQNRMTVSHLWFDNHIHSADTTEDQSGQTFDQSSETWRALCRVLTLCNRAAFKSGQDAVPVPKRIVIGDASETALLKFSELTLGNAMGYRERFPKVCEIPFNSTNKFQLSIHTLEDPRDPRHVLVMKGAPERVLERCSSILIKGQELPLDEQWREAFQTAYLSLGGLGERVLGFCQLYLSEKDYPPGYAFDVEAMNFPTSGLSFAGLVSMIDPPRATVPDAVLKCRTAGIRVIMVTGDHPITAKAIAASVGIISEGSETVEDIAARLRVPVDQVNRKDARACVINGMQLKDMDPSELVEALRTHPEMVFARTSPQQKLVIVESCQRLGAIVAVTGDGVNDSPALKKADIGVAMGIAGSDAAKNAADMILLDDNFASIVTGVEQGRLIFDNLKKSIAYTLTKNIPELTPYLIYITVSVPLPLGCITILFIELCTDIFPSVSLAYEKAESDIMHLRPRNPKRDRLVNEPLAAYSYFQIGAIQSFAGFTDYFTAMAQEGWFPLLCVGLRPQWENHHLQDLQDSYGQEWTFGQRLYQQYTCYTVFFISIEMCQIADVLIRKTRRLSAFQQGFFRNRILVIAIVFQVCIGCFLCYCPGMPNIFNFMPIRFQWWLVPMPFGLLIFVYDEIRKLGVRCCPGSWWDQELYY
Sequence of H^+,K^+-ATPase A125S (P18434 whole entry partner): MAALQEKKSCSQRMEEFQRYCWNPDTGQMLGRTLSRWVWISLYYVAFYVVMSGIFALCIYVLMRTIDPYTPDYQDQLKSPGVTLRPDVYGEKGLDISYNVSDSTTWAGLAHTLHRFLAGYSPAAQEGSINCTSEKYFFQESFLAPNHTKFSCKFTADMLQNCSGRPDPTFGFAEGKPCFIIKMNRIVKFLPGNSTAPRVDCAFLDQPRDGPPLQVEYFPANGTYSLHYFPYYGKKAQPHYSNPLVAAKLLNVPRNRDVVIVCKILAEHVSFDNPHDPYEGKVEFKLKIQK

[1] = target: H^+,K^+-ATPase A335C/C813A (Sus scrofa, UniProt P19156, A336C/C814A); experiment: ATPase assay, A335C/C813A mutant
H^+,K^+-ATPase D136A = H^+,K^+-ATPase D136A (Sus scrofa, UniProt P19156, D137A); experiment: ATPase assay, D136A mutant
H^+,K^+-ATPase Y799A = H^+,K^+-ATPase Y799A (Sus scrofa, UniProt P19156, Y800A); experiment: ATPase assay, Y799A mutant
H^+,K^+-ATPase L139I = H^+,K^+-ATPase L139I (Sus scrofa, UniProt P19156, L140I); experiment: ATPase assay, L139I mutant
H^+,K^+-ATPase D137I = H^+,K^+-ATPase D137I (Sus scrofa, UniProt P19156, D138I); experiment: ATPase assay, D137I mutant
H^+,K^+-ATPase A335G = H^+,K^+-ATPase A335G (Sus scrofa, UniProt P19156, A336G); experiment: ATPase assay, A335G mutant
Sequence of H^+,K^+-ATPase A335G (P19156 whole entry A336G): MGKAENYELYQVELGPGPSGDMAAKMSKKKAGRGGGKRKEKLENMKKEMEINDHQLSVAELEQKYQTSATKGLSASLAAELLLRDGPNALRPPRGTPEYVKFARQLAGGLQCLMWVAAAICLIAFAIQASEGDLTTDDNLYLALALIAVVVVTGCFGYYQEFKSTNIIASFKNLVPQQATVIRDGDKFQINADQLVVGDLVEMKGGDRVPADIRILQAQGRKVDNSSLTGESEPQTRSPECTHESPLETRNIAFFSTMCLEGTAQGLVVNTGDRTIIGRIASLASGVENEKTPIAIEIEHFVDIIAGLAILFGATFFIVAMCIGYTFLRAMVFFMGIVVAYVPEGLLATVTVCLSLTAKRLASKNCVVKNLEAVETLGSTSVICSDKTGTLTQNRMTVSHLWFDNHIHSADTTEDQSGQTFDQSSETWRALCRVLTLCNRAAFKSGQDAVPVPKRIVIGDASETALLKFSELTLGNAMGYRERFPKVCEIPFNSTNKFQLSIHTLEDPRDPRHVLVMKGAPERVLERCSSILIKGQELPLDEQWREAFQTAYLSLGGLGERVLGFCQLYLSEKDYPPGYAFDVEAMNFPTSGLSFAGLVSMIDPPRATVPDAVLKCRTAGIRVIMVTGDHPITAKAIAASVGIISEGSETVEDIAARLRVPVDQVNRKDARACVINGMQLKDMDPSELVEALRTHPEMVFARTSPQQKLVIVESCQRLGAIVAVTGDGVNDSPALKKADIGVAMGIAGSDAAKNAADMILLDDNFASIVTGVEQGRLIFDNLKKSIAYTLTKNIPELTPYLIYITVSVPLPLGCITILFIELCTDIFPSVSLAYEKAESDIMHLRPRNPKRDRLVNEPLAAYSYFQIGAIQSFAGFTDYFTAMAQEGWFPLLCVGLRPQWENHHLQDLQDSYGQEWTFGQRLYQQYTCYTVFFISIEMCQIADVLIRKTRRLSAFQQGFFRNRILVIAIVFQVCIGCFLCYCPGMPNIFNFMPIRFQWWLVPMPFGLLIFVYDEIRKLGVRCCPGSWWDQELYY
Sequence of H^+,K^+-ATPase A335G (P18434 whole entry partner): as the sequence (P18434 whole entry partner) above

H^+,K^+-ATPase L139F = H^+,K^+-ATPase L139F (Sus scrofa, UniProt P19156, L140F); experiment: ATPase assay, L139F mutant
H^+,K^+-ATPase D137F = H^+,K^+-ATPase D137F (Sus scrofa, UniProt P19156, D138F); experiment: ATPase assay, D137F mutant
H^+,K^+-ATPase Y140L = H^+,K^+-ATPase Y140L (Sus scrofa, UniProt P19156, Y141L); experiment: ATPase assay, Y140L mutant
Sequence of H^+,K^+-ATPase Y140L (P19156 whole entry Y141L): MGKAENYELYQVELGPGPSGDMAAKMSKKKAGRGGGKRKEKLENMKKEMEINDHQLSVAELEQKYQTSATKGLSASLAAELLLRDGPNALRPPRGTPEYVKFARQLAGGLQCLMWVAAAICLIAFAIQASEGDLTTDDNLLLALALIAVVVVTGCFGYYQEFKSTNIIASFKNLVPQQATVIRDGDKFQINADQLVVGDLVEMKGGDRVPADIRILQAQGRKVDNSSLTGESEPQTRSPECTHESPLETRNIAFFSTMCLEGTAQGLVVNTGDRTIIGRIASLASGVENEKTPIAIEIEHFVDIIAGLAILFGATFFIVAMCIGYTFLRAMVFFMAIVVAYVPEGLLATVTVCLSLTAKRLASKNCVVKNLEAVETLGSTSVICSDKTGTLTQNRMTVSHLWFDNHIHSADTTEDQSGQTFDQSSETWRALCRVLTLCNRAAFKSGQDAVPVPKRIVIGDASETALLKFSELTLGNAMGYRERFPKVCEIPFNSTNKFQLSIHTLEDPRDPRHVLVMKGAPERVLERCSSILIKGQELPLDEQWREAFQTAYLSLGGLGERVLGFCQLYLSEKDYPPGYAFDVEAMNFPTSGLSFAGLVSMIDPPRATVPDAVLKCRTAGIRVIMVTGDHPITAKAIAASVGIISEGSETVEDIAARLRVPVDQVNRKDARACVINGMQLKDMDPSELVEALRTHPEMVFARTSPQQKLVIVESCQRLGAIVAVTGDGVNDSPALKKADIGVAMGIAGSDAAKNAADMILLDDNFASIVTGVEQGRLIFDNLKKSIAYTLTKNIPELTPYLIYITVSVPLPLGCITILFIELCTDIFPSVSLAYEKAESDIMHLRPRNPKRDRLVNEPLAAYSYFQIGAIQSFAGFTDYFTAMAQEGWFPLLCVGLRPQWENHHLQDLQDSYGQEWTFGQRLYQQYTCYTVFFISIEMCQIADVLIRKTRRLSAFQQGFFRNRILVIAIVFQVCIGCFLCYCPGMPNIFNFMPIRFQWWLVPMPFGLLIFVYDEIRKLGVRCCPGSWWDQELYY
Sequence of H^+,K^+-ATPase Y140L (P18434 whole entry partner): as the sequence (P18434 whole entry partner) above

H^+,K^+-ATPase A339S = H^+,K^+-ATPase A339S (Sus scrofa, UniProt P19156, A340S); experiment: ATPase assay, A339S mutant
H^+,K^+-ATPase D136I = H^+,K^+-ATPase D136I (Sus scrofa, UniProt P19156, D137I); experiment: ATPase assay, D136I mutant
H^+,K^+-ATPase D137N = H^+,K^+-ATPase D137N (Sus scrofa, UniProt P19156, D138N); experiment: ATPase assay, D137N mutant
Sequence of H^+,K^+-ATPase D137N (P19156 whole entry D138N): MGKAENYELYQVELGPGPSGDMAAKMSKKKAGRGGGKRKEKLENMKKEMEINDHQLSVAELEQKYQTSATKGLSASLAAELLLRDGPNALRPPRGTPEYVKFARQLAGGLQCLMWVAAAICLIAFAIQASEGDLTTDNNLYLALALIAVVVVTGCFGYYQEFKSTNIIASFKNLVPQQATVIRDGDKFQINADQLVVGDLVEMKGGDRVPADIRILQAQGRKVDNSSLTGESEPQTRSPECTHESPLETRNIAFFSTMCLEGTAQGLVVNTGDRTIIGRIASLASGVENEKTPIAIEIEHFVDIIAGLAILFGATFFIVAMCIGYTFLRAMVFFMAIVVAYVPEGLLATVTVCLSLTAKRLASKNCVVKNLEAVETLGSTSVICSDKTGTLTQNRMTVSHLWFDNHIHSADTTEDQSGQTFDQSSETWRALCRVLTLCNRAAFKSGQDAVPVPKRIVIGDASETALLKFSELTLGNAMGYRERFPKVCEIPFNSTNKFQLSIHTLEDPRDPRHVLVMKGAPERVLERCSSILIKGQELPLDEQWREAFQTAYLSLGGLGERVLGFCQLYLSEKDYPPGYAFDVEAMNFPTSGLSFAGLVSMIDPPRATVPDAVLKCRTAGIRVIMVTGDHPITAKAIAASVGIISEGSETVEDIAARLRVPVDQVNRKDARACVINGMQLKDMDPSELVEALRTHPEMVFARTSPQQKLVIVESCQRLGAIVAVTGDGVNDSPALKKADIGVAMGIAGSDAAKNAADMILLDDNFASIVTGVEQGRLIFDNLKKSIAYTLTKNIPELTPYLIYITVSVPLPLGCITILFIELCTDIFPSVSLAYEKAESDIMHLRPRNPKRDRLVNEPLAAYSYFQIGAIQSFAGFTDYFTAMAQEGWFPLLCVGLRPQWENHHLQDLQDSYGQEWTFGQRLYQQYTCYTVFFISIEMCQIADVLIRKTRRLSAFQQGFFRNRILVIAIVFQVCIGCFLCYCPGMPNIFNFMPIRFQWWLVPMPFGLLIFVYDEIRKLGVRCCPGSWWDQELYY
Sequence of H^+,K^+-ATPase D137N (P18434 whole entry partner): as the sequence (P18434 whole entry partner) above

For `Cc1nc2c3c(ccn2c1C)[C@@H](O)[C@H](O)[C@@H](c1ccccc1)N3` [BYK99], the Ki (H^+,K^+-ATPase N138A) was 1.4 ± 0.3 nM, the “-fold increase in K i compared with wild-type” value (“-fold increase in K i” below) (H^+,K^+-ATPase N138A; N138A) was 0.2 fold and the “-fold increase in K i” value (H^+,K^+-ATPase D137E) was 9.8 fold. For the same compound, the Ki (H^+,K^+-ATPase D137E; high H^+-ATPase activity, K i' determined by K m/V max plot) was 57 ± 16 nM, the Ki (H^+,K^+-ATPase V338A) was 50 ± 7 nM and the “-fold increase in K i” value (H^+,K^+-ATPase V338A; V338A) was 8.6 fold. For the same compound, the Ki (H^+,K^+-ATPase Y140I) was 4.3 ± 0.5 nM, the “-fold increase in K i” value (H^+,K^+-ATPase Y140I; Y140I) was 0.7 fold and the IC50 (H^+,K^+-ATPase) was 77 nM. The “-fold increase in K i” value (H^+,K^+-ATPase I126F; I126F) was 4.1 fold, the Ki (H^+,K^+-ATPase I126F; I126F (M1), high H^+-ATPase activity, K i determined by K m/V max plot) was 24 ± 15 nM and the Ki (H^+,K^+-ATPase V331A) was 47 ± 3 nM. The “-fold increase in K i” value (H^+,K^+-ATPase V331A; V331A) was 8.1 fold, the Ki (H^+,K^+-ATPase D136F) was 5.9 ± 0.7 nM and the “-fold increase in K i” value (H^+,K^+-ATPase D136F; D136F) was 1.0 fold. For the same compound, the Ki (H^+,K^+-ATPase A125S) was 27 ± 2 nM, the “-fold increase in K i” value (H^+,K^+-ATPase A125S; A125S) was 4.6 fold and the Ki [1] was > 1000 nM. The “-fold increase in K i” value ([1]; A335C/C813A) was > 170 fold, the Ki (H^+,K^+-ATPase D136A) was 10 ± 1 nM and the “-fold increase in K i” value (H^+,K^+-ATPase D136A; D136A) was 1.7 fold. The Ki (H^+,K^+-ATPase Y799A) was > 1000 nM, the “-fold increase in K i” value (H^+,K^+-ATPase Y799A; Y799A) was > 170 fold and the Ki (H^+,K^+-ATPase L139I) was 2.6 ± 0.2 nM. For the same compound, the “-fold increase in K i” value (H^+,K^+-ATPase L139I; L139I) was 0.4 fold, the Ki (H^+,K^+-ATPase D137I) was 62 ± 15 nM and the “-fold increase in K i” value (H^+,K^+-ATPase D137I; D137I) was 11 fold. For the same compound, the Ki (H^+,K^+-ATPase A335G) was 1.2 ± 0.1 nM, the “-fold increase in K i” value (H^+,K^+-ATPase A335G; A335G) was 0.2 fold and the fold increased affinity (H^+,K^+-ATPase A335G; A335G vs WT) was 5 fold. For the same compound, the Ki (H^+,K^+-ATPase L139F) was 18 ± 3 nM, the “-fold increase in K i” value (H^+,K^+-ATPase L139F; L139F) was 3.1 fold and the Ki (H^+,K^+-ATPase D137F) was 640 ± 110 nM. The “-fold increase in K i” value (H^+,K^+-ATPase D137F; D137F) was 110 fold, the Ki (H^+,K^+-ATPase Y140L) was 5.3 ± 0.4 nM and the “-fold increase in K i” value (H^+,K^+-ATPase Y140L; Y140L) was 0.9 fold. For the same compound, the Ki (H^+,K^+-ATPase A339S) was 21 ± 1 nM, the “-fold increase in K i” value (H^+,K^+-ATPase A339S; A339S) was 3.6 fold and the Ki (H^+,K^+-ATPase D136I) was 15 ± 2 nM. For the same compound, the “-fold increase in K i” value (H^+,K^+-ATPase D136I; D136I) was 2.6 fold, the Ki (H^+,K^+-ATPase D137N) was 450 ± 100 nM and the “-fold increase in K i” value (H^+,K^+-ATPase D137N; D137N) was 78 fold. For the same compound, the “fold lower affinity than WT” value (H^+,K^+-ATPase D137N; D137N vs WT) was “more than 60 fold”.
